Reference: paper PMC8429421, “Structural basis for the tryptophan sensitivity of TnaC-mediated ribosome stalling” (Nature Communications, 2021)

Target: T1, TnaC–ribosome complex (TnaC–70S) (Escherichia coli, UniProt P0AD89+P61175)
T1 construct: nascent 24-residue TnaC as peptidyl-tRNA(Pro) in E. coli 70S ribosome; L-Trp site formed by TnaC, uL22 Lys90 and 23S rRNA (Psi746, G748, A752, U2609); cell-free translation (PURExpress; RTS100 HY for cryo-EM)
Assay: toeprinting of stalled ribosomes in reconstituted cell-free translation, hyperbolic fit; cryo-EM structure […] Å
Format: biochemical
Conditions: PURExpress lacking amino acids, other 19 amino acids 0.3 mM each, 37 °C, 30 min; arrest at codon 24; apparent functional value, not an equilibrium constant; read-out: [L-Trp]0.5

T1 sequence (P0AD89 whole entry, one chain of several): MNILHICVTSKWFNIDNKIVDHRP

- EC50: 320 µM
Structure (SMILES): N[C@@H](Cc1c[nH]c2ccccc12)C(=O)O [L-Trp]
